# Assay results: patent US6407288B1, “Naphthylsalicylanilides as antimicrobial and antiinflammatory agents” (The Research Foundation of State University of New York, priority 2000, dated 2002)
# System: S. aureus
# Test: MIC microdilution, gram positive
# Type: cell-based, Staphlococcus aureus
# Conditions: Staphylococcus aureus; Table 2, Gram Positive
# Procedure: The MIC's for the compounds were determined by a modified microdilution tube dilution method described in “Methods for Dilution Antimicrobial Susceptibility Tests for Bacteria that Grow Aerobically” (National Committee for Clinical Laboratory Standards Approved Standards, 1997, NCCLS document M7-A4). In general the modifications were made because of the unique growth requirements for the fastidious oral organisms and for those bacteria that require anaerobic conditions. Reference is also made to “Methods for Antimicrobial Susceptibility of Anaerobic Bacteria” (National Committee for Clinical Laboratory Standards Approved Standards, 1997, NCCLS document M11-A4).
# Briefly, the methods were as follows. Cultures were grown for 18-24hrs (aerobic bacteria) or 48-72 hrs (anaerobic bacteria) in the appropriate medium. For aerobic bacteria full strength brain heart infusion medium (BHI, Difco) was used. For anaerobic bacteria, half strength BHI (18.5 g/L) was supplemented by adding yeast extract (10 g/L), hemin (0.29 mL of a stock solution containing 0.1 g/200 mL dH2O) and menadione (15 mL of a stock solution containing 0.15 mL in 30 mL 95% EtOH) was used. Initial cultures were diluted to approximately 1×10^8 CFU/mL for use as an inoculum. Each assay received 10 μL of the inoculum. The drugs were prepared from a stock solution contained in dimethyl sulfoxide (DMSO) and diluted into the culture medium. Final concentrations of the drugs ranged from 50 to 0.05 μg/assay. The tests were run in duplicate and were incubated appropriately with regard to oxygen requirements for 24 to 48 hrs as required. Anaerobic incubation was an atmosphere of 5% CO2, 10% H2, with the balance N2. The lowest concentration of an antimicrobial agent at which no visible growth is noted was referred to as the MIC.
# This embodiment describes the sensitivity of various staphylococcus strains to the compounds of the present invention. The staphylococcus species R is a strain 00-045-1209 from the Children's Hospital in Buffalo. It was isolated from the peritoneal cavity (fluid culture) of an individual. It was coagulase negative. The sensitivity of this strain was tested agaisnt several known antibiotics.
row,Compound,MIC [µg/mL]
1,"O=C(Nc1ccccc1)c1cc(C(=O)c2cccc3ccccc23)ccc1O [NA1, 2-Hydroxy-5-(naphthalene-1-carbonyl)-N-phenyl-benzamide]",50
2,O=C(Nc1cccc(C(F)(F)F)c1)c1cc(C(=O)c2c(O)ccc3ccccc23)ccc1O [NA1OHmF],> 50
3,O=C(Nc1cccc(COc2ccccc2)c1)c1cc(C(=O)c2cccc3ccccc23)ccc1O [NA1_3BnOP],> 50
4,O=C(Nc1cc(C(F)(F)F)cc(C(F)(F)F)c1)c1cc(C(=O)c2cccc3ccccc23)ccc1O [NAmF2],> 50

# Same assay, conditions: Table 2, Gram Positive
row,Compound,MIC S. aureus
1,COc1cc(NC(=O)c2cc(C(=O)c3cccc4ccccc34)ccc2O)cc(OC)c1 [NA1-2mOMe],NE (NE indicates that the drug was not effective at a concentration >50 micrograms/ml)
2,N#Cc1ccc(NC(=O)c2cc(C(=O)c3cccc4ccccc34)ccc2O)c2ccccc12 [NA1NpC],NE (NE indicates that the drug was not effective at a concentration >50 micrograms/ml)
3,O=C(Nc1cccc(Oc2ccccc2)c1)c1cc(C(=O)c2cccc3ccccc23)ccc1O [NA1mOPh],NE (NE indicates that the drug was not effective at a concentration >50 micrograms/ml)
4,O=C(c1ccccc1)c1ccc(NC(=O)c2cc(C(=O)c3cccc4ccccc34)ccc2O)cc1 [NA1pBz],NE (NE indicates that the drug was not effective at a concentration >50 micrograms/ml)

# System: A. viscosus
# Test: MIC microdilution, gram positive
# Type: cell-based, Actinomyces viscosus
# Conditions: Actinomyces viscosus; Table 2, Gram Positive
# Procedure: (§1) The MIC's for the compounds were determined by a modified microdilution tube dilution method described in “Methods for Dilution Antimicrobial Susceptibility Tests for Bacteria that Grow Aerobically” (National Committee for Clinical Laboratory Standards Approved Standards, 1997, NCCLS document M7-A4). In general the modifications were made because of the unique growth requirements for the fastidious oral organisms and for those bacteria that require anaerobic conditions. Reference is also made to “Methods for Antimicrobial Susceptibility of Anaerobic Bacteria” (National Committee for Clinical Laboratory Standards Approved Standards, 1997, NCCLS document M11-A4). Briefly, the methods were as follows. Cultures were grown for 18-24hrs (aerobic bacteria) or 48-72 hrs (anaerobic bacteria) in the appropriate medium. For aerobic bacteria full strength brain heart infusion medium (BHI, Difco) was used. For anaerobic bacteria, half strength BHI (18.5 g/L) was supplemented by adding yeast extract (10 g/L), hemin (0.29 mL of a stock solution containing 0.1 g/200 mL dH2O) and menadione (15 mL of a stock solution containing 0.15 mL in 30 mL 95% EtOH) was used. Initial cultures were diluted to approximately 1×10^8 CFU/mL for use as an inoculum. Each assay received 10 μL of the inoculum. The drugs were prepared from a stock solution contained in dimethyl sulfoxide (DMSO) and diluted into the culture medium. Final concentrations of the drugs ranged from 50 to 0.05 μg/assay. The tests were run in duplicate and were incubated appropriately with regard to oxygen requirements for 24 to 48 hrs as required. Anaerobic incubation was an atmosphere of 5% CO2, 10% H2, with the balance N2. The lowest concentration of an antimicrobial agent at which no visible growth is noted was referred to as the MIC.
row,Compound,MIC [µg/mL]
1,"O=C(Nc1ccccc1)c1cc(C(=O)c2cccc3ccccc23)ccc1O [NA1, 2-Hydroxy-5-(naphthalene-1-carbonyl)-N-phenyl-benzamide]",3.1
2,O=C(Nc1cccc(C(F)(F)F)c1)c1cc(C(=O)c2c(O)ccc3ccccc23)ccc1O [NA1OHmF],0.8
3,O=C(Nc1cccc(COc2ccccc2)c1)c1cc(C(=O)c2cccc3ccccc23)ccc1O [NA1_3BnOP],6.3
4,O=C(Nc1cc(C(F)(F)F)cc(C(F)(F)F)c1)c1cc(C(=O)c2cccc3ccccc23)ccc1O [NAmF2],0.8

# Same assay, conditions: Table 2, Gram Positive
row,Compound,MIC A. viscosus
1,COc1cc(NC(=O)c2cc(C(=O)c3cccc4ccccc34)ccc2O)cc(OC)c1 [NA1-2mOMe],NE (NE indicates that the drug was not effective at a concentration >50 micrograms/ml)
2,N#Cc1ccc(NC(=O)c2cc(C(=O)c3cccc4ccccc34)ccc2O)c2ccccc12 [NA1NpC],0.8 micrograms/ml
3,O=C(Nc1cccc(Oc2ccccc2)c1)c1cc(C(=O)c2cccc3ccccc23)ccc1O [NA1mOPh],NE (NE indicates that the drug was not effective at a concentration >50 micrograms/ml)
4,O=C(c1ccccc1)c1ccc(NC(=O)c2cc(C(=O)c3cccc4ccccc34)ccc2O)cc1 [NA1pBz],NE (NE indicates that the drug was not effective at a concentration >50 micrograms/ml)

# System: P. ging 381
# Test: MIC microdilution, gram negative
# Type: cell-based, Porphyromonas gingivalis
# Conditions: Porphyromonas gingivalis, 381; Table 3, Gram Negative
# Procedure: The MIC's for the compounds were determined by a modified microdilution tube dilution method described in “Methods for Dilution Antimicrobial Susceptibility Tests for Bacteria that Grow Aerobically” (National Committee for Clinical Laboratory Standards Approved Standards, 1997, NCCLS document M7-A4). In general the modifications were made because of the unique growth requirements for the fastidious oral organisms and for those bacteria that require anaerobic conditions. Reference is also made to “Methods for Antimicrobial Susceptibility of Anaerobic Bacteria” (National Committee for Clinical Laboratory Standards Approved Standards, 1997, NCCLS document M11-A4). Briefly, the methods were as follows. Cultures were grown for 18-24hrs (aerobic bacteria) or 48-72 hrs (anaerobic bacteria) in the appropriate medium. For aerobic bacteria full strength brain heart infusion medium (BHI, Difco) was used. For anaerobic bacteria, half strength BHI (18.5 g/L) was supplemented by adding yeast extract (10 g/L), hemin (0.29 mL of a stock solution containing 0.1 g/200 mL dH2O) and menadione (15 mL of a stock solution containing 0.15 mL in 30 mL 95% EtOH) was used. Initial cultures were diluted to approximately 1×10^8 CFU/mL for use as an inoculum. Each assay received 10 μL of the inoculum. The drugs were prepared from a stock solution contained in dimethyl sulfoxide (DMSO) and diluted into the culture medium. Final concentrations of the drugs ranged from 50 to 0.05 μg/assay. The tests were run in duplicate and were incubated appropriately with regard to oxygen requirements for 24 to 48 hrs as required. Anaerobic incubation was an atmosphere of 5% CO2, 10% H2, with the balance N2. The lowest concentration of an antimicrobial agent at which no visible growth is noted was referred to as the MIC. […] The method used was the same as described in Example 1.
row,Compound,MIC [µg/mL]
1,"O=C(Nc1ccccc1)c1cc(C(=O)c2cccc3ccccc23)ccc1O [NA1, 2-Hydroxy-5-(naphthalene-1-carbonyl)-N-phenyl-benzamide]",1.6
2,O=C(Nc1cccc(C(F)(F)F)c1)c1cc(C(=O)c2c(O)ccc3ccccc23)ccc1O [NA1OHmF],0.8
3,O=C(Nc1cccc(COc2ccccc2)c1)c1cc(C(=O)c2cccc3ccccc23)ccc1O [NA1_3BnOP],3.1
4,O=C(Nc1cc(C(F)(F)F)cc(C(F)(F)F)c1)c1cc(C(=O)c2cccc3ccccc23)ccc1O [NAmF2],0.2

# Same assay, conditions: Table 3, Gram Negative
row,Compound,MIC P. ging 381
1,COc1cc(NC(=O)c2cc(C(=O)c3cccc4ccccc34)ccc2O)cc(OC)c1 [NA1-2mOMe],NE (NE indicates that the drug was not effective at a concentration >50 micrograms/ml)
2,N#Cc1ccc(NC(=O)c2cc(C(=O)c3cccc4ccccc34)ccc2O)c2ccccc12 [NA1NpC],0.2 micrograms/ml
3,O=C(Nc1cccc(Oc2ccccc2)c1)c1cc(C(=O)c2cccc3ccccc23)ccc1O [NA1mOPh],NE (NE indicates that the drug was not effective at a concentration >50 micrograms/ml)
4,O=C(c1ccccc1)c1ccc(NC(=O)c2cc(C(=O)c3cccc4ccccc34)ccc2O)cc1 [NA1pBz],NE (NE indicates that the drug was not effective at a concentration >50 micrograms/ml)

# Same assay, conditions: Table 3 printed a second time, Gram Negative
row,Compound,MIC P. ging 381
1,"O=C(Nc1ccccc1)c1cc(C(=O)c2cccc3ccccc23)ccc1O [NA1, 2-Hydroxy-5-(naphthalene-1-carbonyl)-N-phenyl-benzamide]",1.6 micrograms/ml
2,COc1cc(NC(=O)c2cc(C(=O)c3cccc4ccccc34)ccc2O)cc(OC)c1 [NA1-2mOMe],NE (NE indicates that the drug was not effective at a concentration >50 micrograms/ml)
3,N#Cc1ccc(NC(=O)c2cc(C(=O)c3cccc4ccccc34)ccc2O)c2ccccc12 [NA1NpC],0.2 micrograms/ml
4,O=C(Nc1cccc(C(F)(F)F)c1)c1cc(C(=O)c2c(O)ccc3ccccc23)ccc1O [NA1OHmF],0.8 micrograms/ml
5,O=C(Nc1cccc(COc2ccccc2)c1)c1cc(C(=O)c2cccc3ccccc23)ccc1O [NA1_3BnOP],3.1 micrograms/ml
6,O=C(Nc1cccc(Oc2ccccc2)c1)c1cc(C(=O)c2cccc3ccccc23)ccc1O [NA1mOPh],NE (NE indicates that the drug was not effective at a concentration >50 micrograms/ml)
7,O=C(c1ccccc1)c1ccc(NC(=O)c2cc(C(=O)c3cccc4ccccc34)ccc2O)cc1 [NA1pBz],NE (NE indicates that the drug was not effective at a concentration >50 micrograms/ml)
8,O=C(Nc1cc(C(F)(F)F)cc(C(F)(F)F)c1)c1cc(C(=O)c2cccc3ccccc23)ccc1O [NAmF2],0.2 micrograms/ml

# System: S. mutans
# Test: MIC microdilution, gram positive
# Type: cell-based, Streptococcus mutans
# Conditions: Streptococcus mutans; Table 1, Gram Positive
# Procedure: as §1
row,Compound,MIC [µg/mL]
1,"O=C(Nc1ccccc1)c1cc(C(=O)c2cccc3ccccc23)ccc1O [NA1, 2-Hydroxy-5-(naphthalene-1-carbonyl)-N-phenyl-benzamide]",50
2,O=C(Nc1cccc(C(F)(F)F)c1)c1cc(C(=O)c2c(O)ccc3ccccc23)ccc1O [NA1OHmF],6.3
3,O=C(Nc1cccc(COc2ccccc2)c1)c1cc(C(=O)c2cccc3ccccc23)ccc1O [NA1_3BnOP],> 50
4,O=C(Nc1cc(C(F)(F)F)cc(C(F)(F)F)c1)c1cc(C(=O)c2cccc3ccccc23)ccc1O [NAmF2],1.6

# Same assay, conditions: Table 1, Gram Positive
row,Compound,MIC S. mutans
1,COc1cc(NC(=O)c2cc(C(=O)c3cccc4ccccc34)ccc2O)cc(OC)c1 [NA1-2mOMe],NE (NE indicates that the drug was not effective at a concentration >50 micrograms/ml)
2,N#Cc1ccc(NC(=O)c2cc(C(=O)c3cccc4ccccc34)ccc2O)c2ccccc12 [NA1NpC],NE (NE indicates that the drug was not effective at a concentration >50 micrograms/ml)
3,O=C(Nc1cccc(Oc2ccccc2)c1)c1cc(C(=O)c2cccc3ccccc23)ccc1O [NA1mOPh],NE (NE indicates that the drug was not effective at a concentration >50 micrograms/ml)
4,O=C(c1ccccc1)c1ccc(NC(=O)c2cc(C(=O)c3cccc4ccccc34)ccc2O)cc1 [NA1pBz],NE (NE indicates that the drug was not effective at a concentration >50 micrograms/ml)

# System: P. acnes 11828
# Test: MIC microdilution, gram positive
# Type: cell-based, Propionibacterium acnes
# Conditions: Cutibacterium acnes, 11828; Table 1, Gram Positive
# Procedure: as §1
row,Compound,MIC [µg/mL]
1,"O=C(Nc1ccccc1)c1cc(C(=O)c2cccc3ccccc23)ccc1O [NA1, 2-Hydroxy-5-(naphthalene-1-carbonyl)-N-phenyl-benzamide]",> 50

# System: P. acnes 6922
# Test: MIC microdilution, gram positive
# Type: cell-based, Propionibacterium acnes
# Conditions: Cutibacterium acnes, 6922; Table 1, Gram Positive
# Procedure: as §1
row,Compound,MIC [µg/mL]
1,"O=C(Nc1ccccc1)c1cc(C(=O)c2cccc3ccccc23)ccc1O [NA1, 2-Hydroxy-5-(naphthalene-1-carbonyl)-N-phenyl-benzamide]",25
2,O=C(Nc1cccc(C(F)(F)F)c1)c1cc(C(=O)c2c(O)ccc3ccccc23)ccc1O [NA1OHmF],3.1
3,O=C(Nc1cccc(COc2ccccc2)c1)c1cc(C(=O)c2cccc3ccccc23)ccc1O [NA1_3BnOP],> 50
4,O=C(Nc1cc(C(F)(F)F)cc(C(F)(F)F)c1)c1cc(C(=O)c2cccc3ccccc23)ccc1O [NAmF2],0.4

# Same assay, conditions: Table 1, Gram Positive
row,Compound,MIC P. acnes 6922
1,COc1cc(NC(=O)c2cc(C(=O)c3cccc4ccccc34)ccc2O)cc(OC)c1 [NA1-2mOMe],NE (NE indicates that the drug was not effective at a concentration >50 micrograms/ml)
2,N#Cc1ccc(NC(=O)c2cc(C(=O)c3cccc4ccccc34)ccc2O)c2ccccc12 [NA1NpC],0.4 micrograms/ml
3,O=C(Nc1cccc(Oc2ccccc2)c1)c1cc(C(=O)c2cccc3ccccc23)ccc1O [NA1mOPh],NE (NE indicates that the drug was not effective at a concentration >50 micrograms/ml)
4,O=C(c1ccccc1)c1ccc(NC(=O)c2cc(C(=O)c3cccc4ccccc34)ccc2O)cc1 [NA1pBz],NE (NE indicates that the drug was not effective at a concentration >50 micrograms/ml)

# System: S. sanguis
# Test: MIC microdilution, gram positive
# Type: cell-based, Streptococcus sanguis
# Conditions: Streptococcus; Table 1, Gram Positive
# Procedure: as §1
row,Compound,MIC [µg/mL]
1,"O=C(Nc1ccccc1)c1cc(C(=O)c2cccc3ccccc23)ccc1O [NA1, 2-Hydroxy-5-(naphthalene-1-carbonyl)-N-phenyl-benzamide]",> 50

# System: S.salivarius
# Test: MIC microdilution, gram positive
# Type: cell-based, Streptococcus salivarius
# Conditions: Streptococcus salivarius; Table 1, Gram Positive
# Procedure: as §1
row,Compound,MIC [µg/mL]
1,"O=C(Nc1ccccc1)c1cc(C(=O)c2cccc3ccccc23)ccc1O [NA1, 2-Hydroxy-5-(naphthalene-1-carbonyl)-N-phenyl-benzamide]",> 50
